Experimental data as given in publication PMC11054735, “LDLR-Mediated Targeting and Productive Uptake of siRNA-Peptide Ligand Conjugates In Vitro and In Vivo” (Pharmaceutics, 2024).
Where two headings read alike, the source gives them in different places.

Experiments:
[1] = tested on: mSOD1 mRNA in Neuro-2a cells; assay: Gene silencing after transfection (DharmaFECT 2) in Neuro-2a cells, RT-qPCR; format: cell-based, mouse; conditions: DharmaFECT 2, 30 nM, 24 h at 37 °C
Procedure: Neuro-2a cells were plated in a 96-well plate at 4000 cells/well one day before experiments. According to DharmaFECT general manufacturer’s protocol (Horizon Discovery), cells were transfected with a mix containing the DharmaFECT 2 and 30 nM of tested compound. […] At the end of the incubation period, Neuro-2a cells were washed once with D-PBS before RNA extraction.
(§1) For in vitro free uptake experiments, the total RNA was extracted using the NucleoSpin RNA XS (Macherey Nagel, Hoerdt, France) according to the manufacturer’s recommendations. For transfection experiments the SuperScript™ IV CellsDirect™ cDNA Synthesis kit (Thermo Fisher Scientific) was used according to manufacturer’s recommendations. For in vivo experiments, mouse organs were crushed in 2 mL tubes pre-filled with ceramic mixture in Precellys®Cryolys® Evolution (Bertin, Montigny le Bretonneux, France) with a QIAZOL lysis buffer (Qiagen, Venlo, The Netherlands). A volume of 150 µL of chloroform (Sigma Aldrich) was added to 750 µL of tissue homogenate and a phenol/chloroform separation was performed using centrifugation for 15 min at 6000× g at 4 °C. Aqueous phases were recovered and RNA extraction was performed with the RNeasy 96 QIAcube HT Kit (Qiagen) according to the manufacturer’s recommendations, in a QIACUBE HT instrument (Qiagen). […] For reverse transcription (RT), 500 ng of total RNA were used (except for cells treated with SuperScript™ IV CellsDirect™ cDNA Synthesis), and cDNA synthesis was performed using the High-Capacity RNA-to-cDNA™ kit (Thermo Fisher Scientific) according to the manufacturer’s recommendations.
(§2) Real-time quantitative PCR (RT-qPCR) assays were performed using the CFX96 Touch Real-Time PCR Detection System (Bio-Rad, Hercules, CA, USA). […] The following primers were used: Mm01344233_g1 SOD1 (mouse), Mm02526700_g1 RpL13 (mouse), Mm01352366_m1 SDHA (mouse), Mm00457191_m1 PSMC4 (mouse). RpL13, SDHA, or PSMC4 served as internal controls for sample normalization, and the comparative cycle threshold method (2−ΔΔCt) was used for data quantification. Finally, gene expression ratios (compared to control samples) were determined.
(A) Transfection of unconjugated siSOD1 and siSOD1-peptide conjugates on Neuro-2a cells at 30 nM. […] (B) Free uptake experiments of unconjugated siSOD1 and siSOD1-peptide conjugates on Neuro-2a cells at 1 µM. After 3 days at 37 °C, mSOD1 mRNA levels were quantified using RT-qPCR. Each dot corresponds to the mean value obtained in independent experiments. (C) Free uptake experiments of siSOD1-31, -35, -36, -37 conjugates with their respective negative controls siSOD1-31Sc, -35Sc, -36Sc, -37Sc on Neuro-2a cells at 1 µM.

[2] = tested on: mSOD1 mRNA in Neuro-2a cells; assay: Gene silencing by free uptake in Neuro-2a cells, RT-qPCR; format: cell-based, mouse; conditions: 1 µM, 3 days at 37 °C, DMEM with 1% fetal calf serum
Procedure: Neuro-2a cells were plated in a 48-well plate at 13,000 cells/well the day before the test. All siRNA and conjugates were incubated during 3 days at 37 °C with 1 µM of conjugate prepared in DMEM supplemented with 1% fetal calf serum. At the end of the incubation period, cells were washed once with D-PBS before RNA extraction. For in vitro free uptake experiments, the total RNA was extracted using the NucleoSpin RNA XS (Macherey Nagel, Hoerdt, France) according to the manufacturer’s recommendations. For transfection experiments the SuperScript™ IV CellsDirect™ cDNA Synthesis kit (Thermo Fisher Scientific) was used according to manufacturer’s recommendations. […] Aqueous phases were recovered and RNA extraction was performed with the RNeasy 96 QIAcube HT Kit (Qiagen) according to the manufacturer’s recommendations, in a QIACUBE HT instrument (Qiagen). […] For reverse transcription (RT), 500 ng of total RNA were used (except for cells treated with SuperScript™ IV CellsDirect™ cDNA Synthesis), and cDNA synthesis was performed using the High-Capacity RNA-to-cDNA™ kit (Thermo Fisher Scientific) according to the manufacturer’s recommendations. Real-time quantitative PCR (RT-qPCR) assays were performed using the CFX96 Touch Real-Time PCR Detection System (Bio-Rad, Hercules, CA, USA). […] Finally, gene expression ratios (compared to control samples) were determined. […] (A) Transfection of unconjugated siSOD1 and siSOD1-peptide conjugates on Neuro-2a cells at 30 nM. […] (B) Free uptake experiments of unconjugated siSOD1 and siSOD1-peptide conjugates on Neuro-2a cells at 1 µM. […] Each dot corresponds to the mean value obtained in independent experiments.

SOD1 mRNA in liver = assay: In vivo gene silencing in mouse liver after i.v. administration, RT-qPCR; conditions: C57Bl/6JRj mice, single i.v. bolus 1 µmole/kg (15 mg/kg siRNA) in PBS, liver 7 days post-administration
Procedure: Wild-type male C57Bl/6JRj mice (Janvier Labs, Le Genest-Saint-Isle, France) aged 10–12 weeks old were used. All animal studies were approved by the ethics committee for animal experimentation (CEEA-N°14) and approved by French ministry of agriculture (MRC). […] Intravenous (i.v., lateral tail vein) administrations (15 mg/kg) were performed on conscious restrained mice. Following a 7-day observational period, animals were euthanized by an intraperitoneal overdose of Ketamin-Xylasine mixture (Sigma Aldrich, Saint-Quentin-Fallavier, France), and tissue samples were collected after extensive blood wash-out by intracardiac perfusion (Left ventricle, Flow rate 8 mL/min) of a saline solution (0.9%) and immediately stored at −20 °C in 10 vol NucleoProtect RNA stabilization reagent (Macherey-Nagel, Düren, Germany) before further RNA extraction and target mRNA quantification.
as §1, §2
The in vivo targeting and functional uptake potential of LDLR-binding siSOD1-peptide conjugates was evaluated as follows.
Mice were injected (i.v. lateral tail vein) with unconjugated siRNAs and siSOD1-peptide conjugates in PBS (15 mg/kg). Seven days post-administration mice were euthanized and perfused with saline solution (0.9% NaCl). Organs were collected to assess the SOD1 mRNA levels using RT-qPCR.

[3] = biological target: T1, His-tagged recombinant mouse LDLR (extracellular domain, mLDLR-ECD) (Mus musculus, UniProt P35951); assay: SPR LDLR-binding affinity (multiple-cycle kinetics, equilibrium KD); conditions: SPR Biacore T200, 25 °C, mLDLR on NiHC1000m chip (700–2000 RU), MCK mode, 50 mM HEPES-NaOH pH 7.4 running buffer, analyte 0.6–640 nM or 0.6–40 nM, equilibrium response fit, means ± SD of n = 6 (triplicate analysis of 2 independent experiments), read-out: Affinities SPR (equilibrium dissociation constant, KD)
T1 construct: recombinant mouse LDLR (extracellular domain, mLDLR-ECD); purchased SinoBiological (Beijing, China)
Procedure: His-tagged recombinant mouse LDLR (extracellular domain, mLDLR-ECD) was purchased from SinoBiological (Beijing, China). SPR measurements were performed at 25 °C using a Biacore T200 apparatus (Cytiva) and 50 mM HEPES-NaOH pH 7.4, 150 mM NaCl, 50 μM EDTA, 0.005% Tween-20 (v/v), 10 mM Imidazole as running buffer. mLDLR was immobilized on a NiHC1000 m sensor chip (Xantec, Dusseldorf, Germany) at a density of around 10–30 fmol/mm^2. A control flowcell without mLDLR was used as reference. The multiple-cycle kinetic (MCK) method was applied to study molecular interactions of peptides and conjugates. Seven to 11 different concentrations of the analyte were prepared by two-fold dilutions in running buffer (0.6–640 nM or 0.6–40 nM) and successively injected over the flowcells during 120 s at 30 μL/min with a dissociation time of 300 s. Blank runs of running buffer were performed in the same conditions and subtracted from sample runs before evaluation. Equilibrium dissociation constants (KD) were calculated by plotting saturation binding curves using the equilibrium response at the plateau of all curves with BiaEvaluation version 2.0 software. All data are the means of six determinations (triplicate analysis of 2 independent experiments).

[4] = incubation at 2 mM in freshly collected mouse blood at 37 °C; LC-MS/MS on plasma fractions; peptide described elsewhere; cited from earlier work
Description: Among the family of peptide-based vectors we identified, the VH4127 (cyclo[(D)-Cys-Met-Thz-Arg-Leu-Arg-Gly-Pen]) peptide ligand used in this study was described elsewhere. Briefly, it was obtained by high-throughput screening of phage display peptide libraries on engineered cell lines expressing the mouse and human LDLR, and was further chemically optimized for optimal LDLR-binding affinity and plasma stability. The VH4127 peptide contains three non-natural amino-acids D-Cys, Thz, and Pen (at positions 1, 3, and 8, respectively), and a disulfide bridge between D-Cys and Pen side ...

T1 sequence (P35951 22-790 limits assumed): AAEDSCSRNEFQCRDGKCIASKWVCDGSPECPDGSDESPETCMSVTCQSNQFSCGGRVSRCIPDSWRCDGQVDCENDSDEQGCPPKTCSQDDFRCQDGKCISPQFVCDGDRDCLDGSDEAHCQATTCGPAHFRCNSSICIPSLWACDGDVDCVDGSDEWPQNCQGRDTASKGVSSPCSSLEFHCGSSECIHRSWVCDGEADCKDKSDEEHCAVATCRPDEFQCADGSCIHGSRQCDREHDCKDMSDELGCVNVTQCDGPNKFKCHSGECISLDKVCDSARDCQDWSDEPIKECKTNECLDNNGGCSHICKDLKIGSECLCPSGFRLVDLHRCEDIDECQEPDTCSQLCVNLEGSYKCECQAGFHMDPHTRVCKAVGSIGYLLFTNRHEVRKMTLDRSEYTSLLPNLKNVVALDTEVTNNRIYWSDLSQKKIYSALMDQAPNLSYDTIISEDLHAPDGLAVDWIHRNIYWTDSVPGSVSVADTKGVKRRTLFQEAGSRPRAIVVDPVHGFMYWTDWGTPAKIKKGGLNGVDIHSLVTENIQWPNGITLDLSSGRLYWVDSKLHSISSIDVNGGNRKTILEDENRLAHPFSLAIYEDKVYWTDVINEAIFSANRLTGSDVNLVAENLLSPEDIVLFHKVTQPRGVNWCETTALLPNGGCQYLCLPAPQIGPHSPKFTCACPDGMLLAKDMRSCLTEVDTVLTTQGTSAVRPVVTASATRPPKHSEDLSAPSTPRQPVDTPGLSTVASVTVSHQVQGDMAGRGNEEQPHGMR

Compound | In Vitro KD on N2A, Transfection (mSOD1 mRNA knock-down) [1] [%] | In Vitro KD on N2A, Free Uptake (mSOD1 mRNA knock-down) [2] | In Vivo KD, Liver (SOD1 mRNA knock-down) (SOD1 mRNA in liver) | Kd ([3]; SD) [nM] | In vitro plasma stability, estimated half-life [4] [h] | Kd [3] [nM]
Pr-K(N3)-PEG2-[cMThzRLRGPen]c-NH2 (disulfide) [siSOD1-37] | >90 | 60% | 35% | 31.9 ± 1.6 | – | –
CCC(=O)N[C@@H]1CSSC(C)(C)[C@@H](C(N)=O)NC(=O)CNC(=O)[C@H](CCCNC(=N)N)NC(=O)[C@H](CC(C)C)NC(=O)[C@H](CCCNC(=N)N)NC(=O)[C@@H]2CSCN2C(=O)[C@H](CCSC)NC1=O [VH4127, cyclo[(D)-Cys-Met-Thz-Arg-Leu-Arg-Gly-Pen]] | – | – | – | – | 4.27 | –
Pr-K(N3)-PEG2-[cMThzRLRGPen]c-NH2 (disulfide) [siSOD1-33] | >90 | – | ~50% | 12.8 ± 1.9 | – | –
Pr-[cMThzRLRGPenG]c-OH (disulfide) [siSOD1-35] | >90 | improved KD effect compared to its non-binding control siSOD1-35sc | 50% | 11.3 ± 2.9 | – | –
Pr-[cMThzRLRGPen]c-PEG2-K(N3)-NH2 (disulfide) [siSOD1-32] | 40 | did not show improvement compared to the unconjugated 5′P-siSOD1 | ~ 20% | 86.8 ± 17.1 | – | 87 to 104
Pr-K(N3)-PEG2-[cMThzRLRGPen]c-NH2 (disulfide) [siSOD1-31] | >90 | 55% | 40% | 104 ± 11.7 | – | 87 to 104
Pr-K(N3)-PEG2-[cMThzRLRGPen]c-NH2 (disulfide) [siSOD1-36] | >90 | 60% | 30% | 25 ± 1.2 | – | –
